For 16 molecules, IC50 results are on record in US12448394B2, “Heterocyclic pyrazole derivatives as type III receptor tyrosine kinase inhibitors” (DEVELOPMENT CENTER FOR BIOTECHNOLOGY, priority 2019, dated 2025).

One assay addresses T1, FLT3 kinase (Homo sapiens, UniProt P36888).
T1 construct: purchased SignalChem
T1 sequence (P36888 27-993): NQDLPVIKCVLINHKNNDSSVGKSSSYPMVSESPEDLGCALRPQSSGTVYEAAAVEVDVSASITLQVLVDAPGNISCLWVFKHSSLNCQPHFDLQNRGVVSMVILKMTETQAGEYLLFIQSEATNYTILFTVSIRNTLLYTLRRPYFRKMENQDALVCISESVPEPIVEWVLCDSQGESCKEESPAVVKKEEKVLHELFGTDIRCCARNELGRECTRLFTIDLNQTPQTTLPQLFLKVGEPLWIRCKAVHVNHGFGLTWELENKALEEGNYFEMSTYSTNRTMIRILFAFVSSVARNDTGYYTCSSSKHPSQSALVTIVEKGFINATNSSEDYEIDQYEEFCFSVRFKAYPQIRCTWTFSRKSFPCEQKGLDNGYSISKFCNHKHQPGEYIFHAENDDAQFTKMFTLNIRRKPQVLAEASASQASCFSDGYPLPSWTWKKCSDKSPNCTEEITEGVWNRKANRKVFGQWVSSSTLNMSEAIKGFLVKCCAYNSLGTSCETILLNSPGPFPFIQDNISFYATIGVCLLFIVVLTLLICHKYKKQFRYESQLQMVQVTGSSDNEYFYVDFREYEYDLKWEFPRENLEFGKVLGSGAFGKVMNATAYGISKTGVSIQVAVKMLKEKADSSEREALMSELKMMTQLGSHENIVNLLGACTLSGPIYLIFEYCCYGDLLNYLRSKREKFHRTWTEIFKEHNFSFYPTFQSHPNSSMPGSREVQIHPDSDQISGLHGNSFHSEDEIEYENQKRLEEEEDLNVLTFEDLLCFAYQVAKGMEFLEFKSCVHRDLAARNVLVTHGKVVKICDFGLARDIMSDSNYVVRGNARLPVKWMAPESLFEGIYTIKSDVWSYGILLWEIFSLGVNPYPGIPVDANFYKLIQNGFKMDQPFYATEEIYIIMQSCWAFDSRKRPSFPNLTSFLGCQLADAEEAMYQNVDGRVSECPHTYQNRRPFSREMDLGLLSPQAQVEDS
Put plainly: FLT3 kinase assay (AlphaScreen). In kind it is biochemical. The note with it: read-out: Ranking of IC50 values, FLT3. An outline of the steps:
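AlphaScreen detection of biotin-poly(Glu4:Tyr1) phosphorylation by 1.5 ng recombinant FLT3 (10 μM ATP, pH 7.0 MOPS, 10 mM MgCl2; 30 °C, 30 min, EDTA quench). IC50 values derived from serially diluted compound tested in duplicate.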

In another assay the target is T2, PDGFRα kinase (Homo sapiens, UniProt P16234).
T2 construct: purchased SignalChem
T2 sequence (P16234 24-1089): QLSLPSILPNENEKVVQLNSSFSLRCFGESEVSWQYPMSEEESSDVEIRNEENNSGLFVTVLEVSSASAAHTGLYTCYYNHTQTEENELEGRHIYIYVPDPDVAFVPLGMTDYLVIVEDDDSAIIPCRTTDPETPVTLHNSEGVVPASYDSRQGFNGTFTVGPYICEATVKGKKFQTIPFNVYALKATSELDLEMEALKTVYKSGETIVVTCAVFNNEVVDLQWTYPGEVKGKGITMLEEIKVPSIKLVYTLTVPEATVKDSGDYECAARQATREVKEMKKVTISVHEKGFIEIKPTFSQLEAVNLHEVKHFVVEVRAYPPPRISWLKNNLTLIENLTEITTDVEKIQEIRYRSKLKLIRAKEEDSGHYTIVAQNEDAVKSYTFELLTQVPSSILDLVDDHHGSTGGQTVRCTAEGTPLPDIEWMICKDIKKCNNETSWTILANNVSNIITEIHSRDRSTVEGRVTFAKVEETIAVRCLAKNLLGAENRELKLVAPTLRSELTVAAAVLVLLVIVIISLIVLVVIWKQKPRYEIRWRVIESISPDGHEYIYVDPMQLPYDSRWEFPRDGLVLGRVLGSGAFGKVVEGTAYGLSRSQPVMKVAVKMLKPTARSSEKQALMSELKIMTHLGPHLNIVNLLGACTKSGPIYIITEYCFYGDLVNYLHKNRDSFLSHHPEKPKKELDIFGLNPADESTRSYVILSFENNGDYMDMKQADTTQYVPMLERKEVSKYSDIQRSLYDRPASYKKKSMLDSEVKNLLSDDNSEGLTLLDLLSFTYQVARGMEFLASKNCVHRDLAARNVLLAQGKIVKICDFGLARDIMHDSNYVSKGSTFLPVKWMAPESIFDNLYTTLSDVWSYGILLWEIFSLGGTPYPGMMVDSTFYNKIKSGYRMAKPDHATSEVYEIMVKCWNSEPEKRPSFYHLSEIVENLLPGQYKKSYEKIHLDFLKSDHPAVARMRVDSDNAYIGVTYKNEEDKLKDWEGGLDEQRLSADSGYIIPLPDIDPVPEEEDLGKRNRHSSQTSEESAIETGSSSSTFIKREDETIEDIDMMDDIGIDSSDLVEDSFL
Description: PDGFRα kinase assay (AlphaScreen). In kind it is biochemical. Particulars: read-out: Ranking of IC50 values, PDGFRα. Put shortly: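 IC50 values came from duplicate serial dilutions, with product read by AlphaScreen. The reaction ran 30 min at 30 °C, then EDTA stop: 1.5 ng recombinant enzyme, biotin-poly(Glu4:Tyr1) substrate, 10 μM ATP, 10 mM MOPS pH 7.0, 10 mM MgCl2.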
A general note: Alpha assays give light when donor and acceptor beads are brought close together.

In assay [1] the test system is THP-1 human acute monocytic leukemia cell with NRAS G12D mutation. Put plainly: THP-1 cell proliferation assay (counter screen). In kind it is cell-based. The note with it: Homo sapiens, THP-1 cells, 72 hours treatment, CellTiter96, read-out: anti-proliferation activity THP-1 NRAS N12D, IC50 ranking. Put shortly: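 Viability measured as 490 nm absorbance after 2–4 h with CellTiter96 AQueous One reagent, following 72 h treatment with rising compound concentrations. THP-1 cells, 5000/well, grown in RPMI 1640 with 10% FBS and 0.05 mM 2-mercaptoethanol at 37° C, 5% CO2, plated overnight before dosing.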
For orientation: Counterscreens check selectivity or assay interference.

In assay [2] the test system is A375 melanoma cell with BRAF V600E mutation. Put plainly: A375 cell proliferation assay (counter screen). In kind it is cell-based, human. Particulars: Homo sapiens, A-375, A375 cells, 72 hours treatment, CellTiter96, read-out: anti-proliferation activity A375 BRAF V600E, IC50 ranking. An outline of the steps: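 A375 cells (BRAF V600E) seeded at 2000 cells/well in DMEM with 10% FBS, settled overnight at 37° C, 5% CO2, then exposed to increasing compound concentrations for 72 hours. Viability read by MTS-type CellTiter96 AQueous reagent, absorbance at 490 nm after 2–4 hours.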

On to `Cn1ncc2ccc(-c3n[nH]c4c3Cc3sc(-c5ccc(CCN6CCOCC6=O)cc5)cc3-4)cc21` [Compound 66, 4-(4-(3-(1-methyl-1H-indazol-6-yl)-1,4-dihydro-thieno[2′,3′:4,5]cyclopenta [1,2-c]pyrazol-6-yl)phenethyl)morpholin-3-one], for which the IC50 on FLT3 kinase was less than 1 nM; on PDGFRα kinase it was greater than 1000 nM; in assay [1] it was greater than 10000 nM; in assay [2], greater than 10000 nM.
Regarding `Cn1ncc2ccc(-c3n[nH]c4c3Cc3sc(-c5ccc(CN6CCC(F)(F)C6)cc5)cc3-4)cc21` [Compound 67, 6-(4-((3,3-difluoro-pyrrolidin-1-yl)methyl)phenyl)-3-(1-methyl-1H-indazol-6-yl)-1,4-dihydro-thieno[2′,3′:4,5]cyclopenta [1,2-c]pyrazole], the IC50 at FLT3 kinase was 1 to 10 nM; on PDGFRα kinase, 10 to 30 nM; in assay [1] it was greater than 10000 nM; in assay [2], greater than 10000 nM.
`Cn1ncc2ccc(-c3n[nH]c4c3Cc3sc(-c5ccc(OCCN6CCOCC6)cc5)cc3-4)cc21` [Compound 69, 4-(2-(4-(3-(1-methyl-1H-indazol-6-yl)-1,4-dihydro-thieno[2′,3′:4,5]cyclopenta [1,2-c]pyrazol-6-yl)phenoxy)ethyl)morpholine]: the IC50 on FLT3 kinase is less than 1 nM; at PDGFRα kinase, 10 to 30 nM; in assay [1], greater than 10000 nM; in assay [2], greater than 10000 nM.
As for `Cn1ncc2ccc(-c3n[nH]c4c3Cc3sc(-c5cccc(OCCN6CCOCC6)c5)cc3-4)cc21` [Compound 70, 4-(2-(3-(3-(1-methyl-1H-indazol-6-yl)-1,4-dihydro-thieno[2′,3′:4,5]cyclopenta [1,2-c]pyrazol-6-yl)phenoxy)ethyl)morpholine], the IC50 on FLT3 kinase was 1 to 10 nM; on PDGFRα kinase, 10 to 30 nM; in assay [1], greater than 10000 nM; in assay [2] it was greater than 10000 nM.
As for `Cn1ncc2ccc(-c3n[nH]c4c3Cc3sc(C#CCN5CCOCC5)cc3-4)cc21` [Compound 71, 4-(3-(3-(1-methyl-1H-indazol-6-yl)-1,4-dihydro-thieno[2′,3′:4,5]cyclopenta [1,2-c]pyrazol-6-yl)prop-2-yn-1-yl)morpholine], the IC50 at FLT3 kinase lay within 1 to 10 nM; at PDGFRα kinase it was 30 to 100 nM; in assay [1], 1000 to 10000 nM; in assay [2] it was 1000 to 10000 nM.
Take `Cn1ncc2ccc(-c3n[nH]c4c3Cc3sc(-c5ccc(NC6CCOCC6)cc5)cc3-4)cc21` [Compound 72, N-(4-(3-(1-methyl-1H-indazol-6-yl)-1,4-dihydro-thieno[2′,3′:4,5]cyclopenta [1,2-c]pyrazol-6-yl)phenyl)tetrahydro-2H-pyran-4-amine]: the IC50 is 1 to 10 nM on FLT3 kinase, 10 to 30 nM at PDGFRα kinase, greater than 10000 nM in assay [1] and greater than 10000 nM in assay [2].
For the molecule `CN(c1ccc(-c2cc3c(s2)Cc2c(-c4ccc5cnn(C)c5c4)n[nH]c2-3)cc1)C1CCOCC1` [Compound 73, N-methyl-N-(4-(3-(1-methyl-1H-indazol-6-yl)-1,4-dihydrothieno [2′,3′:4,5]cyclopenta [1,2-c]pyrazol-6-yl)phenyl)tetrahydro-2H-pyran-4-amine], the IC50 was 1 to 10 nM on FLT3 kinase, 30 to 100 nM on PDGFRα kinase, greater than 10000 nM in assay [1] and greater than 10000 nM in assay [2].
For the molecule `C[C@@H]1COCCN1Cc1ccc(-c2cc3c(s2)Cc2c(-c4ccc5cnn(C)c5c4)n[nH]c2-3)cc1` [Compound 74, (R)-3-methyl-4-(4-(3-(1-methyl-1H-indazol-6-yl)-1,4-dihydrothieno [2′,3′:4,5]cyclopenta [1,2-c]pyrazol-6-yl)benzyl)morpholine], the IC50 on FLT3 kinase was less than 1 nM; on PDGFRα kinase, 1 to 10 nM; in assay [1] it was greater than 10000 nM; in assay [2], greater than 10000 nM.
With `C[C@H]1COCCN1Cc1ccc(-c2cc3c(s2)Cc2c(-c4ccc5cnn(C)c5c4)n[nH]c2-3)cc1` [Compound 75, (S)-3-methyl-4-(4-(3-(1-methyl-1H-indazol-6-yl)-1,4-dihydrothieno [2′,3′:4,5]cyclopenta [1,2-c]pyrazol-6-yl)benzyl)morpholine], the IC50 on FLT3 kinase is less than 1 nM; at PDGFRα kinase, 1 to 10 nM; in assay [1] it was greater than 10000 nM; in assay [2] it was greater than 10000 nM.
As for `Cn1ncc2ccc(-c3n[nH]c4c3Cc3sc(-c5ccc(C=C6CCOCC6)cc5)cc3-4)cc21` [Compound 76, 3-(1-methyl-1H-indazol-6-yl)-6-(4-((tetrahydro-4H-pyran-4-ylidene)methyl)phenyl)-1,4-dihydrothieno[2′,3′:4,5] cyclopenta[1,2-c]pyrazole], the IC50 is 1 to 10 nM on FLT3 kinase, 100 to 300 nM on PDGFRα kinase, greater than 10000 nM in assay [1] and greater than 10000 nM in assay [2].
As to `Cn1ncc2ccc(-c3n[nH]c4c3Cc3sc(-c5ccc(CC6CCOCC6)cc5)cc3-4)cc21` [Compound 77, 3-(1-methyl-1H-indazol-6-yl)-6-(4-((tetrahydro-2H-pyran-4-yl)methyl)phenyl)-1,4-dihydrothieno [2′,3′:4,5]cyclopenta [1,2-c]pyrazole], the IC50 at FLT3 kinase lay in the range of 1 to 10 nM; on PDGFRα kinase, 30 to 100 nM; in assay [1] it was 1000 to 10000 nM; in assay [2], 1000 to 10000 nM.
As for `Cn1ncc2ccc(-c3n[nH]c4c3Cc3sc(N5CCOCC5)cc3-4)cc21` [Compound 78, 4-(3-(1-methyl-1H-indazol-6-yl)-1,4-dihydro-thieno[2′,3′:4,5]cyclopenta [1,2-c]pyrazol-6-yl) morpholine], the IC50 at FLT3 kinase was less than 1 nM; on PDGFRα kinase, 1 to 10 nM; in assay [1], greater than 10000 nM; in assay [2] it was 1000 to 10000 nM.
Regarding `Cn1ncc2ccc(-c3n[nH]c4c3Cc3sc(N5CCOCC5=O)cc3-4)cc21` [Compound 79, 4-(3-(1-methyl-1H-indazol-6-yl)-1,4-dihydro-thieno[2′,3′:4,5]cyclopenta [1,2-c]pyrazol-6-yl) morpholin-3-one], the IC50 at FLT3 kinase is less than 1 nM; at PDGFRα kinase it was 1 to 10 nM; in assay [1] it was greater than 10000 nM; in assay [2], 1000 to 10000 nM.
Turning to `Cn1ncc2ccc(-c3n[nH]c4c3Cc3sc(-c5ccc(CN6CCC(N7CCOCC7)CC6)cc5)cc3-4)cc21` [Compound 80, 4-(1-(4-(3-(1-methyl-1H-indazol-6-yl)-1,4-dihydro-thieno[2′,3′:4,5]cyclopenta [1,2-c]pyrazol-6-yl)benzyl)piperidin-4-yl) morpholine], the IC50 on FLT3 kinase was less than 1 nM; at PDGFRα kinase it was 1 to 10 nM; in assay [1], greater than 10000 nM; in assay [2] it was greater than 10000 nM.
Consider `Cn1ncc2ccc(-c3n[nH]c4c3Cc3sc(C5CCNCC5)cc3-4)cc21` [Compound 96, 3-(1-methyl-1H-indazol-6-yl)-6-(piperidin-4-yl)-1,4-dihydrothieno [2′,3′:4,5]cyclopenta [1,2-c]pyrazole], for which the IC50 on FLT3 kinase was less than 1 nM; at PDGFRα kinase it was 1 to 10 nM; in assay [1], 300 to 1000 nM; in assay [2] it was 1000 to 10000 nM.
As for `Cn1ncc2ccc(-c3n[nH]c4c3Cc3sc(-c5ccc(CN6CCCOCC6)cc5)cc3-4)cc21` [Compound 97, 4-(4-(3-(1-methyl-1H-indazol-6-yl)-1,4-dihydro-thieno[2′,3′:4,5]cyclopenta [1,2-c]pyrazol-6-yl)benzyl)-1,4-oxazepane], the IC50 on FLT3 kinase was less than 1 nM; at PDGFRα kinase, 30 to 100 nM; in assay [1], 1000 to 10000 nM; in assay [2], 1000 to 10000 nM.
